Experimental findings from patent publication US7262268B2, “Lipopeptide stereoisomers, methods for preparing same, and useful intermediates” (Cubist Pharmaceuticals, Inc., priority 2001, dated 2007) are described below.

Converted amounts (≈) assume the structure as drawn. Read-outs that look alike come from different tables or passages of the source.

One assay relates to E. faecalis. It counts as cell-based. The procedure:
(§1) Compounds according to Formula II were tested for antimicrobial activity against a panel of organisms according to standard procedures described by the National Committee for Clinical Laboratory Standards (NCCLS document M7-A5, Vol. 20, No. 2, 2000) except that all testing was performed at 37° C. Compounds were dissolved in 100% dimethyl sulfoxide and were diluted to the final reaction concentration (0.1 μg/mL-100 μg/mL) in microbial growth media. In all cases the final concentration of dimethyl sulfoxide incubated with cells is less than or equal to 1%. For minimum inhibitory concentration (MIC) calculations, 2-fold dilutions of compounds were added to wells of a microtiter plate containing 5×10^4 bacteria cells in a final volume of 100 μL of media (Mueller-Hinton Broth supplemented with 50 mg/L Ca^2+). The optical densities (OD) of the bacterial cells, which measures bacterial cell growth and proliferation, were measured using a commercial plate reader. The MIC value is defined as the lowest compound concentration inhibiting growth of the test organism.

A further assay deals with S. aureus. Format: cell-based. As to the method:
as §1

Where [1] appears, read: Mueller-Hinton Broth supplemented with 50 mg/L Ca2+, 37° C., 2-fold dilutions.

Regarding `CCCCCCCCCC(=O)N[C@@H](Cc1c[nH]c2ccccc12)C(=O)N[C@H](CC(N)=O)C(=O)N[C@@H](CC(=O)O)C(=O)N[C@@H]1C(=O)NCC(=O)N[C@@H](CCCN)C(=O)N[C@@H](CC(=O)O)C(=O)N[C@H](C)C(=O)N[C@@H](CC(=O)O)C(=O)NCC(=O)N[C@H](CO)C(=O)N[C@@H]([C@H](C)CC(=O)O)C(=O)N[C@@H](CC(=O)c2ccccc2N)C(=O)O[C@@H]1C` [Daptomycin], the “MIC (μg/ml) E. faecalis” value in the assay on E. faecalis was 6.26 µg/mL (≈ 3.86 µM). In the assay on S. aureus, the “MIC (μg/ml) S. aureus” value is 0.78 µg/mL (≈ 0.481 µM).

With `CCCCCCCCCC(=O)N[C@@H](Cc1c[nH]c2ccccc12)C(=O)N[C@@H](CC(N)=O)C(=O)N[C@@H](CC(=O)O)C(=O)N[C@@H]1C(=O)NCC(=O)N[C@@H](CCCN)C(=O)N[C@@H](CC(=O)O)C(=O)N[C@H](C)C(=O)N[C@@H](CC(=O)O)C(=O)NCC(=O)N[C@H](CO)C(=O)N[C@@H](C(C)CC(=O)O)C(=O)N[C@@H](CC(=O)c2ccccc2N)C(=O)O[C@@H]1C` (stereo partly shown) [Compound HH], in the assay with E. faecalis (setting [1]), the “MIC (μg/ml) E. faecalis” value was determined as 100 µg/mL (≈ 61.7 µM). Moreover, the “MIC (μg/ml) S. aureus” value in the assay with S. aureus (setting [1]) worked out at 6.25 µg/mL (≈ 3.86 µM).
